The test system of the assay is BMSB adult or nymph antenna. The experiment in a line: GC-EAD antennal responses to essential oil headspace (SPME) or synthetic SSB pheromone mixture. Also noted: species or system Halyomorpha halys. As to the method: Headspace volatiles from several essential oils (1 ml each in a closed 20 ml glass vial) were sampled via Solid-Phase Micro-Extraction (SPME) (CAR/PDMS, 85 μm, Supelco, Bellefonte, Pa.) for 30 sec before GC-EAD and GC-MS analyses.
BMSB nymphs and adults for electrophysiological study were taken from a lab colony originally collected from Pennsylvania, U.S.A., during the overwintering period.
SPME samples of the various essential oils were injected splitless into a Varian CP-3800 GC equipped with a polar column (HP-INNOWAX; 30 m×0.53 mm×1.0 μm film thickness; Agilent Technologies, Wilmington, Del., USA) and a 1:1 effluent splitter that allowed simultaneous flame ionization detection (FID) and electroantennographic detection (EAD) of BMSB adult or nymph antenna to the separated volatile compounds. Helium was used as the carrier gas, and the injector and detector temperatures were 250° C. and 300° C., respectively. Column temperature was 50° C. for 1 min, rising to 240° C. at 10° C./min, and then held for 10 min. The outlet for the EAD was held in a humidified air stream flowing at 0.5 m/sec over the antennal preparation. EAD recordings were made using silver wire-glass capillary electrodes filled with Beadle-Ephrussi Ringer on freshly cut antennae. The antennal signals were stored and analyzed on a PC equipped with a serial IDAC interface box and the program EAD ver. 2.5 (Syntech, Hilversum, The Netherlands). The same GC-EAD recording procedure was also employed on the BMSB antennae against a synthetic mixture of the Spined soldier bug aggregation pheromone components (trans-2-hexenal, benzyl alcohol, and α-terpineol; 200 ng/μl each in hexane, 2 μl injected).
Antennally active compounds (FID peaks) in the SPME samples of essential oils were identified by GC-MS on an HP 6890 GC series coupled with an HP 5973 Mass Selective Detector using the same type of GC column and conditions as described above. Compounds were identified by comparison of retention times with those of authentic standards and with mass spectra of standards.

Setting [1] is: from the lemongrass oil, FIG. 4.
[2] abbreviates: synthetic mixture of SSB aggregation pheromone components, FIG. 12.

In the case of `CC12CCC(CC1)C(C)(C)O2` [1,8-cineole], where the note is “from rosemary oil, FIG. 8”, the “EAD response of BMSB antennae” value was “significant (strongly or weakly) EAD-responses”.
Turning to `COc1ccc(C)cc1` [4-methylanisole], the “EAD response of BMSB antennae” value (from ylang ylang oil, FIG. 7) was “significant (strongly or weakly) EAD-responses”.
In the case of `CCCCCC(=O)CCC` [4-nonanone], under setting [1], the “EAD response of BMSB antennae” value is listed as “weakly”.
The same measure, in the same setting: under `CC(C)=CCC/C(C)=C/C=O` [E-citral] stands “strongly responded”.
For `CC(C)=CCC/C(C)=C\C=O` [Z-citral], the “EAD response of BMSB antennae” value under setting [1] is recorded as “strongly responded”.
Regarding `CC(=O)OCc1ccccc1` [benzyl acetate], the “EAD response of BMSB antennae” value (from ylang ylang oil, FIG. 7) is recorded as “significant (strongly or weakly) EAD-responses”.
Take `OCc1ccccc1` [benzyl alcohol]: the “EAD response of BMSB antennae” value under setting [2] was “strong antennal responses”.
Consider `CC12CCC(CC1=O)C2(C)C` (stereo not drawn) [camphor], for which, where the note is “from rosemary oil, FIG. 8”, the “EAD response of BMSB antennae” value was “significant (strongly or weakly) EAD-responses”.
Turning to `C=CCc1ccc(O)c(OC)c1` [eugenol], the “EAD response of BMSB antennae” value (from clove oil, FIG. 6) is reported as “significant (strongly or weakly) EAD-responses”.
With `CC(C)=CCC/C(C)=C/CO` [geraniol], the “EAD response of BMSB antennae” value (from geranium oil, FIG. 10) is “significant (strongly or weakly) EAD-responses”.
In the case of `COC(=O)c1ccccc1` [methyl benzoate], for the setting “from ylang ylang oil, FIG. 7”, the “EAD response of BMSB antennae” value is reported as “significant (strongly or weakly) EAD-responses”.
As to `COC(=O)c1ccccc1O` [methyl salicylate], the “EAD response of BMSB antennae” value (from wintergreen oil, FIG. 9) was “significant (strongly or weakly) EAD-responses”.
Regarding `CC(C)=C1CC[C@@H](C)CC1=O` [pulegone], the “EAD response of BMSB antennae” value (from pennyroyal oil, FIG. 11) is on record as “significant (strongly or weakly) EAD-responses”.
With `CCC/C=C/C=O` [trans-2-hexenal], the “EAD response of BMSB antennae” value under setting [2] is given as “strong antennal responses”.
The same measure, in the same setting: under `CC1=CCC(C(C)(C)O)CC1` (stereo not drawn) [α-terpineol] stands “weak activity”.
In the case of `C=C1CC[C@@H]2[C@H]1[C@H]1[C@H](C(C)C)CC[C@]12C` [β-bourbernene], under “from geranium oil, FIG. 10”, the “EAD response of BMSB antennae” value is recorded as “significant (strongly or weakly) EAD-responses”.
Same read-out and setting: under `CC(C)=CCCC(C)CCO` (stereo not drawn) [β-citronellol] stands “significant (strongly or weakly) EAD-responses”.
As for P/I-menthones, the “EAD response of BMSB antennae” value (from geranium oil, FIG. 10) is reported as “significant (strongly or weakly) EAD-responses” and the “EAD response of BMSB antennae” value (from pennyroyal oil, FIG. 11) was “significant (strongly or weakly) EAD-responses”.
Consider cis/trans-rose oxides, for which the “EAD response of BMSB antennae” value (from geranium oil, FIG. 10) is “significant (strongly or weakly) EAD-responses”.
As to l-carvone, under “from spearmint oil, FIG. 5”, the “EAD response of BMSB antennae” value is “significant (strongly or weakly) EAD-responses”.

Source of the values: patent US20130104445A1, “ESSENTIAL OILS AND THEIR COMPOUNDS AS STINK BUG REPELLENTS” (priority 2011, published 2013).
